Values joined by “and” are separate entries in the source; they are usually repeats but may differ in a detail not shown here. Equal entries are not always repeated. Where two headings read alike, the source gives them in different places. Where only a bound is given, the exact number is not on record here.

Series [1] relates to L5178YTk+/− cells. Set-up: method as in PMID 27939830. The settings on record: 0.9–15.65 µM, 24 and 48 h of treatment; cited from earlier work.
On the set-up of series [2]: method as in PMID 27939830. The settings on record: 8.75–280 µM, presence or absence of S9; cited from earlier work.
Series [3] has as its system Caco-2 cells. Also noted: method as in PMID 27939830. The settings on record: 24 and 48 h, highest concentration assayed; cited from earlier work.
Series [4] has as its system Caco-2 cells. Set-up: method as in PMID 27939830. The settings on record: 24–48 h; cited from earlier work.
Series [5] relates to liver and stomach. Briefly: Histopathological analysis of liver and stomach. Format: in vivo, rats. The text has this:
(§1) Samples of the liver and stomach were extracted, and a small part of each tissue was immediately handled, as described in Section 2.6, for the standard and enzyme-modified comet assay. Moreover, blood samples were extracted and preserved in Vacutainer® sodium Heparin Tubes (Becton, Dickinson, Rutherford, NJ, USA). Furthermore, samples from the bone marrow of both femurs of each animal were gathered for the MN assay and were rapidly used to prepare smears (Figure 1). For the histopathologic study, sections of the liver and stomach were excised, rinsed with cold saline solution, and preserved in 10% buffered formalin for light microscopy, according to Llana-Ruiz-Cabello et al..
Liver and stomach samples were processed and observed under the microscope according to Diez-Quijada et al.. A semiquantitative evaluation of the severity of lesions was scored as follows: 0, no significant lesions (0%); 1, minimal (<10%); 2, mild (11–25%); 3, moderate (26–50%); 4, severe (51–75%); and 5: very severe (>75%). Samples were individually examined by two unbiased and experienced observers, a veterinary pathologist, and an investigator (V.M-H. and R.M.).

The test system of series [6] is rats. Briefly: Observation of clinical signs after treatment. The conditions noted are these: all levels of doses of PTS (5.5, 17.4, 55.0 mg/kg b.w.), oral gavage. The series is classed as in vivo, Wistar rats. The source says:
After treatment, each rat was observed twice daily for clinical signs such as changes in the eye, fur, or skin, changes in gait and posture, and secretions.

In series [7] the test system is L5178YTk+/− cells. Set-up: method as in PMID 27939830. The conditions noted are these: cited from earlier work.
Series [8] relates to male and female rats. Briefly: Combined in vivo MN-comet assay (overall genotoxicity). The settings on record: male and female rats orally exposed, 55.0, 17.4 or 5.5 mg PTS/kg b.w. How it is done:
After acclimation time, 28 male and 28 female rats were randomly divided into control or treatment groups: the negative control (C−) (five male and five female rats), the solvent control (C sol) (five male and five female rats) treated with water with 0.3% Tween 80, and the positive control (C+) (three male and three female rats) treated with 200 mg/kg b.w. of ethylmethanesulfonate (EMS). The three PTS-treated groups (five male and five female rats per group) were exposed to 55.0, 17.4, and 5.5 mg of PTS/kg b.w. The number of animals was selected according to OECD 474 [27] and OECD 489 [28], which state five animals per sex and per group, and which also allow the use of at least three animals of both sexes treated with a positive control. Doses were dissolved in water with Tween 80 (final concentration 0.3%) in a final volume of 1.5 mL. Tween 80 was previously used in genotoxicity in vivo studies by Mellado-Garcia et al. with the aim of better conveying alliaceous compounds with an oily nature. All groups were dosed at 0, 24, and 45 h via gavage using a stomach tube (Vygon, Ecouen, France) and were sacrificed 3 h after the final dose administration for the combined comet assay and MN endpoints. The time points of PTS administrations, as well as the timing of sacrifice, were selected following the criteria of OECD guideline 489 and Bowen et al..

Series [9] relates to liver, stomach and blood cells. Nature of the series: In vivo enzyme-modified comet assay (Endo III, FPG). Set-up: species or system Wistar rats. The conditions noted are these: any tissue assayed (liver, stomach, blood); 5.5, 17.4, 55.0 mg/kg. The method, then:
(§2) After acclimation time, 28 male and 28 female rats were randomly divided into control or treatment groups: the negative control (C−) (five male and five female rats), the solvent control (C sol) (five male and five female rats) treated with water with 0.3% Tween 80, and the positive control (C+) (three male and three female rats) treated with 200 mg/kg b.w. of ethylmethanesulfonate (EMS). The three PTS-treated groups (five male and five female rats per group) were exposed to 55.0, 17.4, and 5.5 mg of PTS/kg b.w. The number of animals was selected according to OECD 474 [27] and OECD 489 [28], which state five animals per sex and per group, and which also allow the use of at least three animals of both sexes treated with a positive control.
(§3) Doses were dissolved in water with Tween 80 (final concentration 0.3%) in a final volume of 1.5 mL. Tween 80 was previously used in genotoxicity in vivo studies by Mellado-Garcia et al. with the aim of better conveying alliaceous compounds with an oily nature. […]
(§4) At least 150 randomly selected nuclei per rat were analyzed with the image-analysis-software Comet Assay IV (Perceptive Instruments, UK). The %DNA in the tail, automatically acquired by the software, were used to define each of the comets analyzed. […] The medians of the scored comets were taken to describe each animal, and the means of each group of doses and controls are represented in Figure 2.

In series [10] the test system is rats. Briefly: Acute toxicity study to establish the maximum tolerated dose. The series is classed as in vivo. How it is done: The selection of PTS doses was calculated while taking into account a preceding acute toxicity study carried out by our research group, in which rats (8–10 weeks old) were administrated decreasing doses of PTS to establish the maximum tolerated dose (MTD). […] At that dose, no remarkable injury was detected in the treated rats, and no evidence of study-limiting toxicity was observed. Then, considering the ICH S2 Guidelines and the OECD protocols 474 [27] and 489 [28], the limit dose or MTD of 55.0 mg/kg b.w. was chosen as the highest dose, and two additional properly spaced dose levels (divided by √10) were also calculated. Consequently, the doses were set at 55.0, 17.4, or 5.5 mg of PTS/kg b.w.

The subject of a further series is bone marrow erythrocytes. Nature of the series: In vivo micronucleus (MN) assay in bone marrow (OECD 474). Also noted: species or system Wistar rats. The method, then: as §2
Doses were dissolved in water with Tween 80 (final concentration 0.3%) in a final volume of 1.5 mL. Tween 80 was previously used in genotoxicity in vivo studies by Mellado-Garcia et al. with the aim of better conveying alliaceous compounds with an oily nature. All groups were dosed at 0, 24, and 45 h via gavage using a stomach tube (Vygon, Ecouen, France) and were sacrificed 3 h after the final dose administration for the combined comet assay and MN endpoints. The time points of PTS administrations, as well as the timing of sacrifice, were selected following the criteria of OECD guideline 489 and Bowen et al..
as §1
The MN test was performed according to the OECD guideline 474 [27] and Diez-Quijada et al.. The bone marrow of the femurs of the rats were mixed with a drop of fetal bovine serum. Therefore, slides were immersed in methanol, dried, and stained with Giemsa (Figure 1).
The polychromatic erythrocytes (PCE) among total erythrocytes (polychromatic and normochromic erythrocytes (NCE)) ratio and PCE for every NCE ratio were calculated by counting 500 erythrocytes per rat. The number of micronuclei found in immature erythrocytes was calculated by counting a total of 5000 […] per rat, and it was expressed as %MN.

The subject of series [11] is liver, stomach and blood cells. Briefly: In vivo standard comet assay (OECD 489). Also noted: species or system Wistar rats. The conditions noted are these: any doses assayed, either sex. How it is done: as §2, §3, §4
On the set-up of series [12]: method as in PMID 26607106. The settings on record: four in vitro genotoxicity assays; cited from earlier work.
Series [13] has as its system liver and stomach. Set-up: method as in PMID 27085469. The conditions noted are these: in vivo genotoxicity study; except glycogen accumulation in liver and slight degeneration in stomach at 55.0 mg/kg; cited from earlier work.
Series [14] relates to male and female rats. Set-up: method as in PMID 27085469. The settings on record: cited from earlier work.
The mark [15] stands for this setting: females, 5.5 mg/kg, gavage at 0, 24, 45 h, mean ± SD.
Setting [16] is: females, 17.4 mg/kg, gavage at 0, 24, 45 h, mean ± SD.
The mark [17] stands for this setting: females, 55.0 mg/kg, gavage at 0, 24, 45 h, mean ± SD.
[18] abbreviates: males, 5.5 mg/kg, gavage at 0, 24, 45 h, mean ± SD.
Where [19] appears, read: males, 17.4 mg/kg, gavage at 0, 24, 45 h, mean ± SD.
The mark [20] stands for this setting: males, 55.0 mg/kg, gavage at 0, 24, 45 h, mean ± SD.
Setting [21] is: female, Wistar, rat, in vivo, 200 mg/kg, 48 h.
Where [22] appears, read: male, Wistar, rat, in vivo, 200 mg/kg, 48 h.

Regarding `CCCS[S+]([O-])CCC` (stereo not drawn) [PTS, Propyl-propanethiosulfinate], the “mutagenicity in MLA assay” value in the series with L5178YTk+/− cells [1] is “not mutagenic”. In series [2], the “mutagenicity in the Ames test” value is on record as “not mutagenic”. The “concentration with positive results in standard comet assay” value in the series with Caco-2 cells [3] was 280 µM and 280.0 µM. In the series with Caco-2 cells [4], the “DNA damage after incubation with enzymes (Endo III or FPG)” value is reported as “no increase in DNA damage”. Also, in the series on liver and stomach [5] (55.0 mg/kg, hypertrophy of mucus cells and flaking epithelium, p < 0.05 vs controls), the “severity of lesions in glandular stomach” value is reported as “minimal to mild”. For the same compound, in the series on liver and stomach [5] (55.0 mg/kg, inflammatory infiltrates and centrilobular degeneration of hepatocytes, p < 0.05 vs controls), the “severity of lesions in liver” value was “minimal (1, minimal (<10%))”. Further, the “severity of changes in liver” value with liver and stomach [5] (17.4 and 5.5 mg/kg, similar to negative and solvent controls) was “minimal (1, minimal (<10%))”. Besides, the “severity of histopathological changes in stomach” value in the series on liver and stomach [5] (17.4 and 5.5 mg/kg, statistically significant) was “minimal (1, minimal (<10%))”. In addition, the “lesions in the nonglandular stomach” value in the series on liver and stomach [5] (positive control (EMS 200 mg/kg) and PTS 55.0 mg/kg groups, with pyogranulomatous inflammatory infiltrate) was “vacuolation of the squamous epithelium in the mucosa”. Further, the clinical signs result with rats [6] is on record as “No clinical signs were observed”. Also, the “concentration with positive results in MN test in vitro” value is on record as at least 20 µM with L5178YTk+/− cells [7] (metabolites (+S9)) and 17.25 µM in the series on L5178YTk+/− cells [7] (without S9, highest concentration assayed). Further, the in vivo genotoxicity result with male and female rats [8] is given as “not genotoxic”. Moreover, in [9], the “frequency of Endo III or FPG-sensitive sites” value is “no remarkable changes”. Besides, the mortality result in the series on rats [10] (initial dose 175.0 mg of PTS/kg b.w.) was “death of one of the three animals”. In addition, the “maximum tolerated dose (MTD)” value in the series with rats [10] (rat, in vivo) is listed as 55.0 mg of PTS/kg. The “% of MN in immature erythrocytes vs controls” value with bone marrow erythrocytes (any groups (5.5, 17.4, 55 mg/kg) of either sex) was “not significantly changed”. Besides, the “%MN” value in the series with bone marrow erythrocytes (setting [15]) was 0.86 ± 0.09%; in the series with bone marrow erythrocytes (setting [16]), 0.74 ± 0.06%; in the series with bone marrow erythrocytes (setting [17]) it was 1.03 ± 0.21%; in the series on bone marrow erythrocytes (setting [18]), 0.46 ± 0.21%; in the series on bone marrow erythrocytes (setting [19]), 0.72 ± 0.30%; in the series on bone marrow erythrocytes (setting [20]), 0.46 ± 0.15%. Further, the PCE/NCE in the series with bone marrow erythrocytes (setting [15]) was found to be 1.03 ± 0.43; in the series with bone marrow erythrocytes (setting [16]), 0.68 ± 0.36; with bone marrow erythrocytes (setting [17]), 0.54 ± 0.28; with bone marrow erythrocytes (setting [18]), 1.31 ± 0.30; in the series on bone marrow erythrocytes (setting [19]) it was 1.14 ± 0.34; in the series on bone marrow erythrocytes (setting [20]) it was 0.89 ± 0.21. Further, the PCE/Total in the series on bone marrow erythrocytes (setting [15]) was determined as 0.49 ± 0.10; with bone marrow erythrocytes (setting [16]) it was 0.38 ± 0.13; with bone marrow erythrocytes (setting [17]) it was 0.33 ± 0.11; in the series on bone marrow erythrocytes (setting [18]), 0.56 ± 0.05; in the series with bone marrow erythrocytes (setting [19]) it was 0.52 ± 0.08; with bone marrow erythrocytes (setting [20]), 0.46 ± 0.06. In addition, the “DNA strand breaks (%DNA in tail), standard comet assay” value in [11] is given as “No observed DNA stand breaks”.

For the compound `CCCSS(=O)(=O)CCC` [PTSO, propyl thiosulfinate oxide], the “in vitro genotoxicity responses” value in [12] is “contradictory responses”. Further, the “histopathological damage in liver and stomach” value with liver and stomach [13] is given as “no relevant damage”. Besides, the in vivo genotoxicity result in the series on male and female rats [14] was “lack of PTSO genotoxicity”.

On to `CCOS(C)(=O)=O` [EMS, ethylmethanesulfonate, reference compound], for which, in the series on bone marrow erythrocytes (setting [21]), the “%MN” value came to 2.53 ± 0.38 %, the PCE/NCE came to 0.53 ± 0.29 and the PCE/Total is on record as 0.33 ± 0.12. In the series on bone marrow erythrocytes (setting [22]), the “%MN” value amounted to 1.46 ± 0.72 %, the PCE/NCE stood at 0.54 ± 0.12 and the PCE/Total is given as 0.35 ± 0.05.
